According to article PMC6262012, “IMB-T130 targets 3-dehydroquinate synthase and inhibits Mycobacterium tuberculosis” (Scientific Reports, 2018):
≈ marks a conversion by molar mass, not a printed value. Where two headings read alike, the source gives them in different places.

Tests used:
[1] = test system: M. smegmatis strain with control vector (PMV261 plasmid); experiment: MIC by plate dilution, M. smegmatis with control vector; assay type: cell-based, Mycobacterium smegmatis
Source text: (§1) To overexpress the MtDHQS protein in M. smegmatis, we used the plasmid pMV261-eGFP. The DHQS gene was inserted between the promoter and eGFP gene using BamHI and HindIII restriction enzyme sites so that DHQS was in frame with eGFP. The resulting pMV261:DHQS-eGFP plasmid was transformed into competent M. smegmatis cells. Recombinant protein expression was confirmed by fluorescence microscopy and western blotting with an anti-eGFP antibody. The MICs of IMB-T130 against M. smegmatis with a control vector (pMV261-eGFP plasmid), strains overexpressing a non-related gene (MtL12), and strains overexpressing DHQS-eGFP were determined by the conventional plate dilution method.

[2] = test system: M. smegmatis strain overexpressing MtL12; experiment: MIC by plate dilution, M. smegmatis overexpressing MtL12; assay type: cell-based, Mycobacterium smegmatis; details: Mycolicibacterium smegmatis
Source text: as §1

[3] = test system: M. smegmatis strain overexpressing MtDHQS; experiment: MIC by plate dilution, M. smegmatis overexpressing MtDHQS; assay type: cell-based, Mycobacterium smegmatis; details: for MIC: Overexpressing MtDHQS
Source text: as §1

[4] = test system: M. tuberculosis H37Rv (ATCC27294) in J774A.1 mouse monocyte macrophages; experiment: Intracellular anti-TB activity in macrophages; assay type: cell-based, Mycobacterium tuberculosis; details: for Log10CFU: 3 days, control 5.13 ± 0.03; for reduction in M. tuberculosis colony forming units (CFU): 3 days exposure
[5] = test system: M. tuberculosis; details: cited from earlier work
[6] = Oral tolerability in ICR mice; assay type: in vivo
Procedure: We speculated that the compound might have anti-TB activity in vivo. IMB-T130 was well tolerated in ICR mice at up to 500 mg/kg administered orally.

[7] = Pharmacokinetic studies in rats; assay type: in vivo; details: male, Sprague Dawley, rat; for half-life: plasma
Procedure: Pharmacokinetic parameters were determined after administration of single oral and intravenous (iv) doses of IMB-T130 at 20 and 5 mg/kg, respectively, in male Sprague Dawley rats.
Animal care and all experimental procedures were performed in accordance with local, national, and ethical principles and authority regulations, and were approved by the Institutional Animal Care and Use Committee of the Institute of Medicinal Biotechnology Institute. Sprague Dawley rats (226.5–261.2 g) were used in the pharmacokinetic studies. The formulation of IMB-T130 (4 mg/mL) was prepared in 5 mL water with 0.5% sodium carboxyl methyl cellulose for oral administration. For iv administration, 7.5 mg IMB-T130 was dissolved in 0.075 mL N-methyl pyrrolidone, and 0.6 mL of PEG400 and 0.825 mL of 20% hydroxypropyl-β-cyclodextrin (aq) were added. After vortexing for 5 min, the 5 mg/mL IMB-T130 formulation was prepared. Rats were dosed at 1 mL/kg by iv injection and at 5 mL/kg by oral gavage at 0 h. A 0.2 mL blood sample was drawn from the jugular vein at 5, 15, and 30 min, and 1, 2, 4, 6, 8, and 24 h. The blood samples were centrifuged (8000 rpm, 6 min) at 4 °C for plasma separation. The IMB-T130 plasma concentration was determined by liquid chromatography-mass spectrometry using an ACQUITY UPLC BEH C18 column (Waters; 1.7 µm, 2.1 × 50 mm)[30].

[8] = target: T1, DHQS (Mycobacterium tuberculosis, UniProt P9WPX9); experiment: SPR interaction between DHQS and IMB-T130 (NTA sensor chip); assay type: binding; details: 1.875–30 μM IMB-T130
Procedure: Surface plasmon resonance (SPR) could detect interactions between compounds and proteins. DHQS protein is unstable under acidic conditions, so the combination of IMB-T130 and DHQS was detected using nitrilotriacetic acid (NTA) sensor chip. The chips were coated with […] to capture the His-tagged protein and then exposed to a concentration gradient (1.875–30 μM) of IMB-T130. The response units were determined by SPR[16],[17].
An SPR experiment was performed to examine the interaction between DHQS and IMB-T130. Because the protein was unstable under acidic conditions, CM5 sensor chips were not suitable. […] The sensor chips were first coated with Ni^2+ before capturing the purified DHQS. Next, the chip was exposed to different concentrations of IMB-T130, and the response units for five different concentrations (1.875–30 μM) of IMB-T130 were measured by SPR (BIAcore X100 instrument, GE Healthcare).

[9] = target: Mycobacterium tuberculosis 3-dehydroquinate synthase (MtDHQS) (Mycobacterium tuberculosis, UniProt P9WPX9); experiment: DHQS enzyme assay (malachite green, free phosphoric acid); assay type: biochemical
Procedure: DHQS catalyse the conversion of DAHP to DHQ, and release a molecule of free phosphoric acid. The reaction was performed in a 50-µL volume with DHQS (1 μg/mL), NAD^+ (40 μg/mL), DAHP (10 μg/mL), and Tris-HCl (50 mM, pH 7.5). The solution was added to a 96-well plate and incubated for 40 min at 37 °C. Then, 100 µL of malachite green solution was added and the absorbance of the solution was measured at 620 nm[27].
We screened compounds with anti M. smegmatis activity for DHQS inhibitors. DHQS protein was pre-incubated with 0.5 μL of the test compound (10 μg/mL, dissolved in DMSO) at room temperature for 30 min in 49.5 μL of buffer (without DAHP); for the control group, 0.5 μL of DMSO was added. The reaction was initiated by adding 0.5 μL of DAHP solution followed by incubation (40 min, 37 °C). The absorbance was measured by a microplate reader. […] DHQS (1 μg/mL) was pre-incubated with increasing IMB-T130 concentrations (0.16–40 μg/mL) for 30 min at room temperature, with 1% DMSO used as a control.

[10] = target: T1, DHQS; experiment: Circular dichroism spectrum of DHQS and its complex with IMB-T130; assay type: binding
Source text: CD is widely used to examine protein structures in solution. In the far UV spectral region (180–240 nm), the CD spectrum reflects the absorption of peptide bonds, and provides some information about the secondary structural features of a protein[18]. We determined the CD spectrum of the native DHQS and the complex of DHQS and IMB-T130.

[11] = target: T1, DHQS; experiment: HPLC-Q-TOF mass spectrometry of intact DHQS after incubation with IMB-T130; details: suggests non-covalent binding
Procedure: In this study, HPLC-Q-TOF mass spectrometry was also performed to determine the molecular mass of the protein.

[12] = Mycolicibacterium smegmatis, read-out: MIC

T1 sequence (P9WPX9 whole entry): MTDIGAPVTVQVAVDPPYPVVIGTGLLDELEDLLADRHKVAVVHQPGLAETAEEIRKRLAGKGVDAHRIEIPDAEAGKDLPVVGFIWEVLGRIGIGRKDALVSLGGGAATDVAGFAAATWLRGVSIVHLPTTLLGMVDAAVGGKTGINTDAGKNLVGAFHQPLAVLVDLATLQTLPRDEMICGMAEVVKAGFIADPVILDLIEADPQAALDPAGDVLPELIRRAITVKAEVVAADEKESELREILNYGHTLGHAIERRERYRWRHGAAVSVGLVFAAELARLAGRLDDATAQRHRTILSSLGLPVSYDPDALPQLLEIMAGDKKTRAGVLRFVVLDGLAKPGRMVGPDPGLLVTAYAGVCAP
Sequence of Mycobacterium tuberculosis 3-dehydroquinate synthase (MtDHQS) (P9WPX9 whole entry): as above

[H]/N=C(/N)N[C@H]1[C@H](O)[C@@H](O)[C@H](O[C@@H]2O[C@@H](C)[C@](O)(C=O)[C@H]2O[C@@H]2O[C@@H](CO)[C@H](O)[C@@H](O)[C@@H]2NC)[C@@H](N/C(N)=N\[H])[C@@H]1O [Streptomycin, reference compound]
MIC [1, 12]: 0.156 µg/mL (≈ 0.268 µM) | MIC [2]: 0.156 µg/mL (≈ 0.268 µM) | MIC [3, 12]: 0.156 µg/mL (≈ 0.268 µM)

CO[C@H]1/C=C/O[C@@]2(C)Oc3c(C)c(O)c4c(O)c(c(/C=N/N5CCN(C)CC5)c(O)c4c3C2=O)NC(=O)/C(C)=C\C=C\[C@H](C)[C@H](O)[C@@H](C)[C@@H](O)[C@@H](C)[C@H](OC(C)=O)[C@@H]1C [RFP, rifampicin, reference compound]
Log10CFU ([4]; 0.5 μg/mL): 4.25 ± 0.07 | Log10CFU ([4]; 2 μg/mL): 3.74 ± 0.05 | reduction in M. tuberculosis colony forming units (CFU) ([4]; 5 μg/mL): 1.84 log10 | Log10CFU ([4]; 5 μg/mL): 3.29 ± 0.12

O=C(Nc1nc(-c2ccccn2)cs1)c1ccc(Cl)s1 [IMB-T130, 5-chloro-N-[4-(pyridin-2-yl)-1,3-thiazol-2-yl] thiophene-2-carboxamide]
minimum inhibitory concentration MIC ([5]; strain not printed at the place): 0.08 µg/mL (≈ 0.249 µM) | anti-TB activity for susceptible strains ([5]; susceptible strains): comparable anti-TB activity to rifampicin (RFP) and isoniazid (INH) | well tolerated oral dose ([6]; administered orally): up to 500 mg/kg | adverse effects ([6]; oral, over 72 hours): No adverse effects were observed | MIC [1]: 0.312 µg/mL (≈ 0.97 µM) | MIC [1, 12]: 0.312 µg/mL (≈ 0.97 µM) | half-life ([7]; iv 5 mg/kg): 2.13 h | half-life ([7]; po 20 mg/kg): 2.17 h | bioavailability ([7]; in vivo): 12.8% | AUC(0-t) ([7]; in vivo, iv, 5 mg/kg): 1.07 ng·h/mL | Vd ([7]; in vivo, iv, 5 mg/kg): 14.9 L/kg | clearance ([7]; in vivo, iv, 5 mg/kg): 83.2 mL/min/kg | AUC(0-t) ([7]; in vivo, po, 20 mg/kg): 0.55 ng·h/mL | Cmax ([7]; in vivo, po, 20 mg/kg): 116 ng/mL | Tmax ([7]; in vivo, po, 20 mg/kg): 1.5 h | time exposure was higher than the MIC (80 ng/mL) ([7]; in vivo, po, 20 mg/kg): about 4 hours | SPR response units [8]: significant dose-dependent response | IC50 ([9]; IC50, DHQS 1 μg/mL, pre-incubated 30 min at room temperature): 2700 nM | remaining activity at 10 µg/mL ([9]; read-out: OD630 as % of the control (1% DMSO)): < 50% | Log10CFU ([4]; 1 μg/mL): 4.85 ± 0.06 | reduction in M. tuberculosis colony forming units (CFU) ([4]; 5 μg/mL): 1.07 log10 | Log10CFU ([4]; 5 μg/mL): 4.06 ± 0.03 | reduction in M. tuberculosis colony forming units (CFU) ([4]; 10 μg/mL): 1.36 log10 | Log10CFU ([4]; 10 μg/mL): 3.77 ± 0.10 | MIC [2]: 0.312 µg/mL (≈ 0.97 µM) | β-turn composition of DHQS in the complex ([10]; native protein 11.2%): 12.4% | random coil composition of DHQS in the complex ([10]; native protein 13.4%): 16.8% | α-helix composition of DHQS in the complex ([10]; native protein 71.6%): 63.3% | MIC of DHQS-overexpression strain relative to control strain ([3]; DHQS-overexpression vs PMV261 control strain): eight-fold higher | MIC [3, 12]: 2.5 µg/mL (≈ 7.77 µM) | MIC [3]: 2.5 µg/mL (≈ 7.77 µM) | intact mass of DHQS after incubation with compound [11]: did not increase
